In paper PMC4550478, “Metronidazole-triazole conjugates: Activity against Clostridium difficile and parasites” (European Journal of Medicinal Chemistry, 2015):
Converted amounts (≈) assume the structure as drawn.

Columns and labels:
[1] = system: H. pylori clinical isolate 98/285; test: MIC agar dilution, H. pylori 98/285; type: cell-based; conditions: Helicobacter pylori, MtzR clinical isolate
Procedure: (§1) All compounds were tested for activity against a set of anaerobic C. difficile bacteria (630 ATCC BAA-1382, NAP1/027 M7404, NAP1/027 ATCC BAA-1803, VPI10463 ATCC 43255, CD26A54_S and CD26A54_R) and representative ESKAPE pathogens S. aureus (MRSA ATCC 43300), E. coli (ATCC 25922), K. pneumoniae (ATCC 700603), A. baumannii (ATCC 19606) and P. aeruginosa (ATCC 27853) using a standard broth microdilution assay. Selected compounds were tested for activity against H. pylori strains (26695, and clinical isolates MtzS 13/25, MtzR 98/285 and MtzR 13/61) using agar plate dilution, and for antimicrobial activity against […] Gram-positive bacterial strains: Enterococcus faecalis (VanA clinical isolate), Enterococcus faecium (MDR VanA ATCC 51559), Streptococcus pneumoniae (MDR ATCC 700677), S. aureus (MRSA ATCC 43300, MRSA clinical isolate, MRSA/DRSA clinical isolate, GISA NARSA NRS 1, GISA NARSA NRS 17, VRSA NARSA VRS1, VRSA NARSA VRS4 and VRSA NARSA VRS10) using broth microdilution. C. difficile strains were grown at 37 °C in a COY anaerobic chamber (5% H2, 10% CO2, 85% N2). H. pylori strains were grown at 37 °C under a microaerobic atmosphere (5% O2, 10% CO2). All facultative anaerobic bacteria were grown at 37 °C with normal atmospheric oxygen levels. All experiments were performed in duplicate with metronidazole, vancomycin, linezolid or colistin as positive controls for relevant strains (see Table 1). Positive growth control of bacteria and DMSO as well as a negative control of only media were included for every plate. Full assay details are provided in the supplementary information.
(§2) Helicobacter pylori strains, with a range of resistance levels to metronidazole (256 µg/ml, 64 µg/ml, 24 µg/ml, 2 µg/ml, and 0.04 µg/ml), were selected and obtained from Helicobacter Research Laboratory, University of Western Australia. The resistance strength to metronidazole was recorded according to eTest (bioMérieux). H. pylori strain 26695 was used as the control. H. pylori was maintained on the non-selective Columbia blood agar plates (CBA) (Columbia agar base Oxoid) with 5% horse blood and incubated at 37 °C and 10% CO2 for 48 hrs. […] Each of the H. pylori strains were harvested, OD600 calibrated to 0.3, and spotted in triplicate on CBA pre-mixed with the compound. The lowest concentration of antibiotic showing no growth was read as the MIC. The experiment was performed in duplicate.

[2] = system: C. difficile 630 ATCC BAA-1382; test: MIC broth microdilution, C. difficile 630; type: cell-based, Clostridium difficile; conditions: 24 h, median of at least n = 4; for MIC: Clostridioides difficile, ATCCBAA1382, MtzS
Procedure: as §1
C. difficile ATCC BAA-1382, ATCC BAA-1803, ATCC 43255 and M7404 heat shocked spore stocks (10 µL) were transferred into the anaerobic chamber and 10 µL streaked onto pre-reduced (at least 2.5 hr in anaerobic chamber) BHIS agar plates supplemented with 0.1% w/v sodium taurocholate (BHIS(TA)). Plates were incubated for 24 hours prior to assay to give colonies of size 1-3mm diameter with characteristic uneven borders.
The minimum inhibition concentration was determined according to the CLSI Methods with modifications in broth and inoculum for C. difficile according to Babakhani et al.^7,8 Briefly, compounds were prepared to 20X final concentration in 100% water, 60% DMSO and 40% water or 60% DMSO and 40% media. The compounds along with standard antibiotics were serially diluted two-fold across the wells of 96-well non-binding surface plates (Non binding surface, Corning). The plates were placed in the anaerobic chamber overnight to reduce. C. difficile bacteria from BHIS(TA) agar plates were cultured anaerobically in BHIS at 37 °C overnight. A sample of culture was then diluted 40-fold in BHIS broth and incubated at 37 °C for approximately 4.5 hrs. The resultant mid-log phase culture (OD600= 0.5-0.6) was diluted to the final concentration of ~1×10^6 CFU/mL, then 50 µL was added to each well of the compound-containing 96-well plates. This gave final cell concentration of 5×10^5 CFU/mL, final volume 100 µL and 3% maximum DMSO concentration. Compound concentration was typically from 64 to 0.03 µg/mL. An antibiotic standard was included on each 96 well plate as well as a positive growth control (no compound) and sterility control (no bacteria). All the plates were covered and incubated at 37 °C for 24 h. MICs were the lowest concentration showing no visible growth.

[3] = system: H. pylori clinical isolate 13/25; test: MIC agar dilution, H. pylori 13/25; type: cell-based; conditions: Helicobacter pylori, MtzS clinical isolate
Procedure: as §1, §2

[4] = system: H. pylori clinical isolate 13/61; test: MIC agar dilution, H. pylori 13/61; type: cell-based; conditions: Helicobacter pylori, MtzR clinical isolate
Procedure: as §1, §2

H. pylori 26695 = test: MIC agar dilution, H. pylori 26695; type: cell-based; conditions: Helicobacter pylori, MtzS, microaerobic
Procedure: as §1, §2

[5] = system: G. lamblia BRIS/83/HEPU/106 (106); set-up: method as in earlier work; conditions: MtzS, crude Mtz-triazoles (>85% purity), ref 15 (Miyamoto et al.); read-out: EC50 G. lamblia 106, Lit.; cited from earlier work
[6] = system: G. lamblia BRIS/87/HEPU/713 (713); set-up: method as in earlier work; conditions: MtzS, crude Mtz-triazoles (>85% purity), ref 15 (Miyamoto et al.); read-out: EC50 G. lamblia 713, Lit.; cited from earlier work
G. lamblia 713-M3 (713M) = system: G. lamblia 713-M3 (713M); set-up: method as in earlier work; conditions: MtzR, crude Mtz-triazoles (>85% purity), ref 15 (Miyamoto et al.); read-out: EC50 G. lamblia 713M, Lit.; cited from earlier work

Row | SMILES | MIC [2] [mg/L] | EC50 [5] [µM] | EC50 [6] [µM] | EC50 (G. lamblia 713-M3 (713M)) [µM] | further results
1 | Cc1ncc([N+](=O)[O-])n1CCn1cc(Cn2cccn2)nn1 [Compound 4g, 1-(2-(2-methyl-5-nitro-1H-imidazol-1-yl)ethyl)-4-((1H-pyrazol-1-yl)methyl)-1H-1,2,3-triazole] | 1 (≈ 3.31 µM) |  |  |  | MIC [1]: 16 to 32 mg/L (≈ 52.9 to 106 µM); MIC [3]: 2 mg/L (≈ 6.62 µM); MIC [4]: 16 to 32 mg/L (≈ 52.9 to 106 µM); MIC (H. pylori 26695): 2 to 4 mg/L (≈ 6.62 to 13.2 µM)
2 | Cc1ncc([N+](=O)[O-])n1CCn1cc(-c2ncccn2)nn1 [Compound 4j, 1-(2-(2-methyl-5-nitro-1H-imidazol-1-yl)ethyl)-4-(2-pyrimidinyl)-1H-1,2,3-triazole] | 2 (≈ 6.66 µM) |  |  |  | 
3 | COc1ccc(-c2cn(CCn3c([N+](=O)[O-])cnc3C)nn2)cc1 [Compound 4b, 1-(2-(2-methyl-5-nitro-1H-imidazol-1-yl)ethyl)-4-(4-methoxyphenyl)-1H-1,2,3-triazole] | 0.5 (≈ 1.52 µM) |  |  |  | 
4 | Cc1ncc([N+](=O)[O-])n1CCn1cc(CN)nn1.O=C(O)C(F)(F)F [Compound 4t, 1-(2-(2-methyl-5-nitro-1H-imidazol-1-yl)ethyl)-4-(aminomethyl)-1H-1,2,3-triazole trifluoroacetate salt] | > 64 |  |  |  | 
5 | COC(=O)c1cn(CCn2c([N+](=O)[O-])cnc2C)nn1 [Compound 4f, 1-(2-(2-methyl-5-nitro-1H-imidazol-1-yl)ethyl)-4-(methoxycarbonyl)-1H-1,2,3-triazole] | 1 (≈ 3.57 µM) |  |  |  | MIC [3]: 32 to 64 mg/L (≈ 114 to 228 µM); MIC (H. pylori 26695): 32 to 64 mg/L (≈ 114 to 228 µM)
6 | Cc1ncc([N+](=O)[O-])n1CCn1cc(CN2CCS(=O)(=O)CC2)nn1 [Compound 4o, 1-(2-(2-methyl-5-nitro-1H-imidazol-1-yl)ethyl)-4-((1,1-dioxothiomorpholin-4-yl)methyl)-1H-1,2,3-triazole] | > 64 |  |  |  | 
7 | Cc1ncc([N+](=O)[O-])n1CCn1cc(C(O)c2ccccc2)nn1 (stereo not drawn) [Compound 4l, 1-(2-(2-methyl-5-nitro-1H-imidazol-1-yl)ethyl)-4-(1-phenyl-1-hydroxylmethyl)-1H-1,2,3-triazole] | 1 (≈ 3.05 µM) |  |  |  | 
8 | Cc1ncc([N+](=O)[O-])n1CCn1cc(C(=O)O)nn1 [Compound 4s, 1-(2-(2-methyl-5-nitro-1H-imidazol-1-yl)ethyl)-4-(carboxy)-1H-1,2,3-triazole] | 64 (≈ 240 µM) |  |  |  | MIC [1]: > 64 mg/L; MIC [3]: > 64 mg/L; MIC [4]: > 64 mg/L; MIC (H. pylori 26695): > 64 mg/L
9 | Cc1ncc([N+](=O)[O-])n1CCn1cc(CN(C)Cc2ccccc2)nn1 [Compound 4m, 1-(2-(2-methyl-5-nitro-1H-imidazol-1-yl)ethyl)-4-(N-benzyl, N-methylaminomethyl)-1H-1,2,3-triazole] | 2 (≈ 5.63 µM) | 0.3 | 0.91 | 9.3 | MIC [3]: 2 mg/L (≈ 5.63 µM); MIC [4]: 16 mg/L (≈ 45 µM); MIC (H. pylori 26695): 4 mg/L (≈ 11.3 µM)
10 | Cc1ccc(-c2cn(CCn3c([N+](=O)[O-])cnc3C)nn2)cc1 [Compound 4e, 1-(2-(2-methyl-5-nitro-1H-imidazol-1-yl)ethyl)-4-(p-tolyl)-1H-1,2,3-triazole] | 0.5 (≈ 1.6 µM) | 2.1 | 0.53 | 8.1 | 
11 | Cc1ncc([N+](=O)[O-])n1CCN=[N+]=[N-] [Compound 3, 1-(2-azidoethyl)-2-methyl-5-nitro-1H-imidazole] |  |  |  |  | MIC C. difficile 630 ([2]; MtzS): 1 mg/L (≈ 5.1 µM)
12 | Cc1ncc([N+](=O)[O-])n1CCn1cc(Cc2ccccc2)nn1 [Compound 4k, 1-(2-(2-methyl-5-nitro-1H-imidazol-1-yl)ethyl)-4-benzyl-1H-1,2,3-triazole] | 0.5 (≈ 1.6 µM) | 0.71 | 0.39 | 5.2 | 
13 | Cc1ncc([N+](=O)[O-])n1CCn1cc(-c2ccccn2)nn1 [Compound 4h, 1-(2-(2-methyl-5-nitro-1H-imidazol-1-yl)ethyl)-4-(2-pyridinyl)-1H-1,2,3-triazole.xTFA] | 0.5 | 0.56 | 0.35 | 14 | MIC [1]: 32 mg/L; MIC [3]: 1 mg/L; MIC [4]: 16 mg/L; MIC (H. pylori 26695): 2 mg/L
14 | Cc1ncc([N+](=O)[O-])n1CCn1cc(CCO)nn1 [Compound 4p, 1-(2-(2-methyl-5-nitro-1H-imidazol-1-yl)ethyl)-4-(2-hydroxyethyl)-1H-1,2,3-triazole] | 8 (≈ 30 µM) |  |  |  | 
15 | Cc1ncc([N+](=O)[O-])n1CCn1cc(-c2ccsc2)nn1 [Compound 4n, 1-(2-(2-methyl-5-nitro-1H-imidazol-1-yl)ethyl)-4-(thiophen-3-yl)-1H-1,2,3-triazole] | 0.5 (≈ 1.64 µM) | 0.34 | 0.23 | 6.9 | 
16 | Cc1ncc([N+](=O)[O-])n1CCn1cc(-c2ccc(Cl)c(Cl)c2)nn1 [Compound 4d, 1-(2-(2-methyl-5-nitro-1H-imidazol-1-yl)ethyl)-4-(3,4-dichlorophenyl)-1H-1,2,3-triazole] | 0.5 (≈ 1.36 µM) | 1.4 | 0.31 | 0.57 | 
17 | Cc1ncc([N+](=O)[O-])n1CCn1cc(-c2ccc(Cl)cc2)nn1 [Compound 4c, 1-(2-(2-methyl-5-nitro-1H-imidazol-1-yl)ethyl)-4-(4-chlorophenyl)-1H-1,2,3-triazole] | 0.5 (≈ 1.5 µM) |  |  |  | 
18 | Cc1ncc([N+](=O)[O-])n1CCn1cc(CCC(=O)O)nn1 [Compound 4r, sodium 1-(2-(2-methyl-5-nitro-1H-imidazol-1-yl)ethyl)-4-(carboxyethyl)-1H-1,2,3-triazole] | > 64 |  |  |  | 
19 | Cc1ncc([N+](=O)[O-])n1CCn1cc(-c2cncnc2)nn1 [Compound 4i, 1-(2-(2-methyl-5-nitro-1H-imidazol-1-yl)ethyl)-4-(5-pyrimidinyl)-1H-1,2,3-triazole] | 1 (≈ 3.33 µM) |  |  |  | 
